The source of these data is ChEMBL document CHEMBL1201862, “PubChem BioAssay data set” (2004).

Activity calls are given as the source filed them.

Experiment [1] in a line: NIH-3T3 fibroblast cytotoxicity, dose response, cytotoxicity control, cell-based, fluorescence, Alamar Blue, secondary assay (AID 2327).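 Note: NIH-3T3 mouse fibroblasts cultured with fluconazole at 8 µg/mL.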 Type of experiment: functional.
Experiment [2] in a line: C. albicans growth with fluconazole, confirmation, fluorescence, retest (AID 2467). Type of experiment: functional, cell-based.
Experiment [3] deals with T1, Serine/threonine-protein phosphatase (Candida dubliniensis (strain CD36 / CBS 7987 / NCPF 3949 / NRRLY-17841) (Yeast), UniProt B9W6M3).
T1 sequence (B9W6M3 whole entry): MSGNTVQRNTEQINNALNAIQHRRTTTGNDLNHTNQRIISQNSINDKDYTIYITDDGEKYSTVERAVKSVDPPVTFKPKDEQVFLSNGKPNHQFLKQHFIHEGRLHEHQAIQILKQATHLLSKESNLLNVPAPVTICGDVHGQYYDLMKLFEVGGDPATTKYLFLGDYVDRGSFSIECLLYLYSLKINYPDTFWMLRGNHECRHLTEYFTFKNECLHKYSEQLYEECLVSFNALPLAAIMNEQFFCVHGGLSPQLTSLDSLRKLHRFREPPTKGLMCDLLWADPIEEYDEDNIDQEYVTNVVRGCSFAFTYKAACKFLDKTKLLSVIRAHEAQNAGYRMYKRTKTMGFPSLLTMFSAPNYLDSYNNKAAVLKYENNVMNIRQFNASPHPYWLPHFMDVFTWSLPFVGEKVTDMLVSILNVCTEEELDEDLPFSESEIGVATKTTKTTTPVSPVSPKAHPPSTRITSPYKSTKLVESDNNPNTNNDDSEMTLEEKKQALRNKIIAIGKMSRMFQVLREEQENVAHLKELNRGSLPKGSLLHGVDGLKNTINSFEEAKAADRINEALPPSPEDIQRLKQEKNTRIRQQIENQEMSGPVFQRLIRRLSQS
As to the kind of experiment: calcineurin pathway inhibitors in yeast reporter, dose response, S. cerevisiae, CDRE-lacZ, luminescence, secondary (AID 2388).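 Note: yeast reporter cells carrying a calcineurin-responsive lacZ construct stimulated with calcium chloride; luminescent beta-galactosidase reporter signal in whole cells rather than isolated phosphatase activity; potency for inhibition where a drop in reporter signal means calcineurin blockade.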 Type of experiment: functional, cell-based.

Experiment [4] concerns the target ATP-dependent molecular chaperone HSP82 (Candida albicans (strain WO-1) (Yeast), UniProt C4YTQ8). As to the kind of experiment: loss of DOC-induced GRE-beta-galactosidase reporter signal, dose response, Hsp90 inhibitor project, S. cerevisiae, luminescence (AID 2400).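 Note: beta-galactosidase luminescence from glucocorticoid response element reporter as proxy for Hsp90 function; inhibitor potency where signal loss means Hsp90 inhibition.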 Type of experiment: functional, cell-based.
Experiment [5] has as its target Peroxisome proliferator-activated receptor gamma/Nuclear receptor coactivator 1 (Homo sapiens, UniProt P37231). Briefly: TR-FRET dose response biochemical High Throughput Screening assay for agonists of the steroid receptor coactivator 1 (SRC-1) recruitment by the peroxisome proliferator-activated receptor gamma (PPAR gamma): non-selective agonists. [Related pubchem assays (depositor defined):AID1300, AID1808, AID504735, AID631]. Type of experiment: protein assay.

Experiment [6] concerns the target Peroxisome proliferator-activated receptor gamma/Nuclear receptor coactivator 3 (Homo sapiens, UniProt P37231). As to the kind of experiment: TR-FRET dose response biochemical High Throughput Screening assay for agonists of the steroid receptor coactivator 3 (SRC-3) recruitment by the peroxisome proliferator-activated receptor gamma (PPAR gamma): non-selective agonists. [Related pubchem assays: 1301 (Confirmation screen.), 1048 (Primary screen.)]. Type of experiment: functional.

Experiment [7] deals with Peroxisome proliferator-activated receptor gamma/Nuclear receptor coactivator 2 (Homo sapiens, UniProt P37231). As to the kind of experiment: TR-FRET dose response biochemical High Throughput Screening assay for agonists of the steroid receptor coactivator 2 (SRC-2) recruitment by the peroxisome proliferator-activated receptor gamma (PPAR gamma): non-selective agonists. [Related pubchem assays: 1297, 1032 ]. Type of experiment: functional.

For experiment [8], the target named is Dual specificity tyrosine-phosphorylation-regulated kinase 1A (Rattus norvegicus, UniProt Q63470). Type of experiment: biochemical, Homo sapiens.
Experiment [9] addresses T2, Rac GTPase-activating protein 1 (Homo sapiens, UniProt Q9H0H5).
T2 sequence (Q9H0H5 whole entry): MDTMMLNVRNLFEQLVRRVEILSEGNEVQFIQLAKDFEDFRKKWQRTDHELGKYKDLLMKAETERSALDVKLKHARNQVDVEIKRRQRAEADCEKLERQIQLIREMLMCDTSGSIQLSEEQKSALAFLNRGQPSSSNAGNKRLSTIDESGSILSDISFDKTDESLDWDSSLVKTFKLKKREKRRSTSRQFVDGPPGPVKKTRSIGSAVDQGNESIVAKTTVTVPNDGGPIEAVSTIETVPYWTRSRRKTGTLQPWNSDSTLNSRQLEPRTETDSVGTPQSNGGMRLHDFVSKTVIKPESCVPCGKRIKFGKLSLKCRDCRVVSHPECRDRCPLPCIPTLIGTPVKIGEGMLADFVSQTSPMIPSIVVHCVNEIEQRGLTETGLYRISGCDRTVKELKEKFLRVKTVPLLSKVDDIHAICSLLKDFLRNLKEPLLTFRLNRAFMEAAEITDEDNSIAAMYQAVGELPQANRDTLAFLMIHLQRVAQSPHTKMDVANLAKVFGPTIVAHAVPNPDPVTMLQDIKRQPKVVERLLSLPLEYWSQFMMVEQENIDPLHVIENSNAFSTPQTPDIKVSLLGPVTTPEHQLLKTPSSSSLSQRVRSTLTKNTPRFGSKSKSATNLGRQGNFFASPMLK
As to the kind of experiment: MgcRacGAP GTPase-activating activity inhibitors, confirmation, biochemical, ADP Hunter fluorescence, primary and confirmatory (AID 624330). Type of experiment: functional.

A short description of experiment [10]: HEp-2 cell cytotoxicity, dose response, cytotoxicity control for RSV inhibitor project, HTS (AID 2410). Type of experiment: functional. Conditions: human respiratory syncytial virus.
For experiment [11], the target named is Cytochrome P450 2C19 (Homo sapiens, UniProt P33261). Briefly: Cytochrome panel assay with activity outcomes. Panel member name: p450-cyp2c19 Compounds with AC50 equal or less than 10 uM are considered active. The settings on record: read-out: AC50. Type of experiment: functional.
The target of experiment [12] is Cytochrome P450 2C9 (Homo sapiens, UniProt P11712).
The target of experiment [13] is Voltage-gated inwardly rectifying potassium channel KCNH2 (Homo sapiens, UniProt Q12809). Conditions: Potency.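 Note: confirmatory quantitative high-throughput screen measuring inhibition of hERG channel activity.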
In experiment [14] the target is Beta-galactosidase (Escherichia coli, UniProt Q8VNN2). As to the kind of experiment: PubChem AID 485352. Type of experiment: functional.
In experiment [15] the target is T3, Type-1 angiotensin II receptor (Homo sapiens, UniProt P30556).
T3 sequence (P30556 whole entry): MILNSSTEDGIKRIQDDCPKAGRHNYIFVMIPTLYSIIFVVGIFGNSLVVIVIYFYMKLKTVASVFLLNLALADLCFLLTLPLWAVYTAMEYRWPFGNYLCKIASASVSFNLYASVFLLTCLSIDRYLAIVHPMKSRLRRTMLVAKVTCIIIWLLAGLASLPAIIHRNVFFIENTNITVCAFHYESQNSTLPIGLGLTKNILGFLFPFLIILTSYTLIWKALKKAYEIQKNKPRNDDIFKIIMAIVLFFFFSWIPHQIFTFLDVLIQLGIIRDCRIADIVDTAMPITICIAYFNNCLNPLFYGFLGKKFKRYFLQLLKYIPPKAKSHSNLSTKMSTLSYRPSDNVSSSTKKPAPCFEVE
Briefly: AT1 receptor antagonists, dose response, selectivity assay for APJ receptor antagonist project, cell-based, uHTS hits (AID 463214).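 Note: antagonist potency against angiotensin II stimulated AT1 response.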 Type of experiment: functional.

A short description of experiment [16]: M. tuberculosis H37Rv growth inhibitors, H37Rv strain (AID 1626). Type of experiment: functional.
Experiment [17] can be described thus: inhibitors of intracellular T. cruzi replication, confirmation, NIH3T3 host cells, beta-gal luminescence (AID 2044).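 Note: intracellular parasites grown in NIH/3T3 mouse fibroblasts as host cells; luminescent beta-galactosidase reporter signal from transgenic T. cruzi replicating inside host cells; inhibitors lower the luminescence signal.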 Type of experiment: functional, cell-based.
Experiment [18] is described as follows: cytotoxicity toward NIH3T3 fibroblasts, dose response, counter-screen, cell-based, ATP luminescence, mouse fibroblasts (AID 2010).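 Note: cells exposed to compound for about 90 hours before reading.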 Type of experiment: functional.
Experiment [19] in a line: Luminescence Cell-Based Dose Retest to Confirm Inhibitors of Cancer Stem Cells. [Related pubchem assays (depositor defined):AID2717, AID2721]. The settings on record: Homo sapiens. Type of experiment: functional.
A short description of experiment [20]: cytotoxicity in HMLE control line with eGFP shRNA, dose response, counter-screen for HMLE_sh_ECad selective toxicity project, cell-based, HMLE_sh_eGFP, luminescence (AID 463074).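 Note: HMLE human mammary epithelial cells expressing control shRNA against eGFP.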 Type of experiment: functional, Homo sapiens.
Experiment [21] in a line: cells. Type of experiment: functional, cell-based.
Experiment [22] is described as follows: cells. Type of experiment: functional, cell-based. The source holds these as a separate data set.
For experiment [23], the target named is Heat shock protein HSP 90-alpha (Homo sapiens, UniProt P07900). Type of experiment: functional, organism-based.
Experiment [24] concerns INS1. As to the kind of experiment: beta cell apoptosis inhibitors, cytokine rescue, dose response, luminescence, retest (AID 449756).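 Note: cell death triggered by IL-1 beta plus TNF-alpha plus IFN-gamma mixture; protective hits raise ATP signal compared with cytokine alone wells.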 Type of experiment: functional, cell-based. The settings on record: Rattus norvegicus.
Experiment [25] has as its target T4, High affinity choline transporter 1 (Homo sapiens, UniProt Q9GZV3).
T4 sequence (Q9GZV3 whole entry): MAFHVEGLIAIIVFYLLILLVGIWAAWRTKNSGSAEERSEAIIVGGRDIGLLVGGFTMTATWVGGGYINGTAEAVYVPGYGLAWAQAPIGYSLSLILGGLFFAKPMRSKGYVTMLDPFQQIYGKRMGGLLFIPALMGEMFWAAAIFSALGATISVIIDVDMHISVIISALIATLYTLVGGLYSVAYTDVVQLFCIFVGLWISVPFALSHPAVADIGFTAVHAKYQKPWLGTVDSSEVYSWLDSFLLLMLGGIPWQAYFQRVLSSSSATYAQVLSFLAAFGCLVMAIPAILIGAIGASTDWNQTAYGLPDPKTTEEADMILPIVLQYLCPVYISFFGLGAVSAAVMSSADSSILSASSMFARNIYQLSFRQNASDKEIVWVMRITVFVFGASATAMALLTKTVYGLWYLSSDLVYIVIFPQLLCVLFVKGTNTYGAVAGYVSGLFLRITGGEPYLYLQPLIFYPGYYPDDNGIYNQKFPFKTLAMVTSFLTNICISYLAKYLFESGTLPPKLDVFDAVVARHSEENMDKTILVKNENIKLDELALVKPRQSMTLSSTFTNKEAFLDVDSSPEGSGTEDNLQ
As to the kind of experiment: CHT inhibitors, dose response, cell-based, 5-point CRC, membrane potential dye (AID 504840). Type of experiment: functional.

Chain of ATP-dependent molecular chaperone HSP82 (C4YTQ8 whole entry): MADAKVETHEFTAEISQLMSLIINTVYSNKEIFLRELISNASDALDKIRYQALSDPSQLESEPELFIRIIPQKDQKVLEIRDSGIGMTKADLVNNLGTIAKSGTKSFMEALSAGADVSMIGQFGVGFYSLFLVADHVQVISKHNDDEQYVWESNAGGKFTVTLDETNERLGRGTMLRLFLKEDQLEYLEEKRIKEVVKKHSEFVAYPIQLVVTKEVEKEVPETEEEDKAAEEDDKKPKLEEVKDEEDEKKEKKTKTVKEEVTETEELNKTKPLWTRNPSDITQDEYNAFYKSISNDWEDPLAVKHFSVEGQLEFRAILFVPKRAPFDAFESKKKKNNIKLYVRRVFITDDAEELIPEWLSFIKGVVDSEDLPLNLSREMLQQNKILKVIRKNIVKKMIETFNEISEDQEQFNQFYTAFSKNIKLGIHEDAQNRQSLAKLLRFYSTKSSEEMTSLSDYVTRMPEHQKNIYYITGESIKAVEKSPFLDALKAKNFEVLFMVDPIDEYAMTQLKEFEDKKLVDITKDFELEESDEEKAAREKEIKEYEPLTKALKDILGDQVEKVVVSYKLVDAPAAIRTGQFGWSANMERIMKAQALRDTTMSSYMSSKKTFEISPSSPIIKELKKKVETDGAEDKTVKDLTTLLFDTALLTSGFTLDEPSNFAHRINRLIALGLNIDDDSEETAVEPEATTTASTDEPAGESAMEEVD
Chain of Voltage-gated inwardly rectifying potassium channel KCNH2 (Q12809 whole entry): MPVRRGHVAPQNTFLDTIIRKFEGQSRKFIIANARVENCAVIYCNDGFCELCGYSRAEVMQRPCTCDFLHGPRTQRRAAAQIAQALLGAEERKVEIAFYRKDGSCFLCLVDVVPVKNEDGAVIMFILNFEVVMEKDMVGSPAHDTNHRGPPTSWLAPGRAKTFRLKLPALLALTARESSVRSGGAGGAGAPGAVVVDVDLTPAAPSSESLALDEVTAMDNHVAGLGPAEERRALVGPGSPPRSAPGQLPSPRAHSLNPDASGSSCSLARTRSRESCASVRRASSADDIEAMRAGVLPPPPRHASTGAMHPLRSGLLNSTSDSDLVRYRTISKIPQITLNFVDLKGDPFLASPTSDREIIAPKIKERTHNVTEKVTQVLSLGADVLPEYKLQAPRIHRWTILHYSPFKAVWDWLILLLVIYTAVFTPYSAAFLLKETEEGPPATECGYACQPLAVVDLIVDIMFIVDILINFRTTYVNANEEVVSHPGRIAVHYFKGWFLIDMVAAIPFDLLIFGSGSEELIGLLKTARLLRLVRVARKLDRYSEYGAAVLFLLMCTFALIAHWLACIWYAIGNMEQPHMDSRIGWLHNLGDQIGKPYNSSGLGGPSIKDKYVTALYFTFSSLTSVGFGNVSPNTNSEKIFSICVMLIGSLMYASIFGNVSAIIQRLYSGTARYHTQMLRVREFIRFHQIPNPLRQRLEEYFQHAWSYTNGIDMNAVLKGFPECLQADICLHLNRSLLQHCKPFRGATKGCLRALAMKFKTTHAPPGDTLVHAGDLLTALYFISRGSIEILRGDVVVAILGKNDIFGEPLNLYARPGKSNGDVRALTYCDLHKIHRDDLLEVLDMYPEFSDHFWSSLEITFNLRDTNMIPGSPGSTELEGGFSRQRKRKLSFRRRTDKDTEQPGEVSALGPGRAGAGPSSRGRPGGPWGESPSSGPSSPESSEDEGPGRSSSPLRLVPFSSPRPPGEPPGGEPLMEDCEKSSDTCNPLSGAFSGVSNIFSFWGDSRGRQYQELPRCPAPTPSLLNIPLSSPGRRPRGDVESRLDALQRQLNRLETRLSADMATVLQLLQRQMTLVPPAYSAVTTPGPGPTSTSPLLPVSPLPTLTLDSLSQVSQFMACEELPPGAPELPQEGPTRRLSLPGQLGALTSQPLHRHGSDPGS
Chain of Beta-galactosidase (Q8VNN2 whole entry): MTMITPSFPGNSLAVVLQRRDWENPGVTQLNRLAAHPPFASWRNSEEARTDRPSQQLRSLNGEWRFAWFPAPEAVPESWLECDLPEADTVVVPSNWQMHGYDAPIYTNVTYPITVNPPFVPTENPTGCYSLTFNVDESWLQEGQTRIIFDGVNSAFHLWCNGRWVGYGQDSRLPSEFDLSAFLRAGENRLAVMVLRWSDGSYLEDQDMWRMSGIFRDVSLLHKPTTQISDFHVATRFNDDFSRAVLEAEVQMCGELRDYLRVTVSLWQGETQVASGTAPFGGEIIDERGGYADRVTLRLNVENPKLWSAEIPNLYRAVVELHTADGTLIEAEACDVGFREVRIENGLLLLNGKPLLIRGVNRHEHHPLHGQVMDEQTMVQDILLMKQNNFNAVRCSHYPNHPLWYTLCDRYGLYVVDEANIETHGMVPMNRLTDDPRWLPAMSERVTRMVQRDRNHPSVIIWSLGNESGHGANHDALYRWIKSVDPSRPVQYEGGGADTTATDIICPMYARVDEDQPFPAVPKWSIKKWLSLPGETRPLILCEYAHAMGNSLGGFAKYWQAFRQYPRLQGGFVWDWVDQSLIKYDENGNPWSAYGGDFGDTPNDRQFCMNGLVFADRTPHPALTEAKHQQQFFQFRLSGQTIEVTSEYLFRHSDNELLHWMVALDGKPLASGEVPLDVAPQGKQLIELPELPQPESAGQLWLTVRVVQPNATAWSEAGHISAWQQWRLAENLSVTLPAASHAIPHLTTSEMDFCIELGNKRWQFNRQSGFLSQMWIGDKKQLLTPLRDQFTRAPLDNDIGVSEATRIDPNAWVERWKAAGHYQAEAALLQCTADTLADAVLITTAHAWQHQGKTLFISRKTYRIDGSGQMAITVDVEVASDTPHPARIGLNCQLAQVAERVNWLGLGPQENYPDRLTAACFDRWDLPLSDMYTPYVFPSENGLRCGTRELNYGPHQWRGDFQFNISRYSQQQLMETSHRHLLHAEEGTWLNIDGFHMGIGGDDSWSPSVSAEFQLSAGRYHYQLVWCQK
Chain of Cytochrome P450 2C19 (P33261 whole entry): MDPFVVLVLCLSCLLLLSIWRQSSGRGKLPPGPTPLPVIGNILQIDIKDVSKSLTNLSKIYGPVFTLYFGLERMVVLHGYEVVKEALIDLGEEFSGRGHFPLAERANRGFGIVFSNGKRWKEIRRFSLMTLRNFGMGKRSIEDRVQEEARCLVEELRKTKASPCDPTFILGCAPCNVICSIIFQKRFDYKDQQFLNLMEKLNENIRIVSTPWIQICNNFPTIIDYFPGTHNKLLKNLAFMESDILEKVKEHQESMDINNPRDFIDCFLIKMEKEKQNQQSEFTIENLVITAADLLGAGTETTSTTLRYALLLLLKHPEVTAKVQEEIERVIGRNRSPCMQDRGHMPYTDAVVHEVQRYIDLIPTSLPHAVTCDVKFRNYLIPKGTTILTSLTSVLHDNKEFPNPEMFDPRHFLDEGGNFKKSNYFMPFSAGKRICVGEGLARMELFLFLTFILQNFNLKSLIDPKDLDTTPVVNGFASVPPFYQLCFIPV
Chain of Cytochrome P450 2C9 (P11712 whole entry): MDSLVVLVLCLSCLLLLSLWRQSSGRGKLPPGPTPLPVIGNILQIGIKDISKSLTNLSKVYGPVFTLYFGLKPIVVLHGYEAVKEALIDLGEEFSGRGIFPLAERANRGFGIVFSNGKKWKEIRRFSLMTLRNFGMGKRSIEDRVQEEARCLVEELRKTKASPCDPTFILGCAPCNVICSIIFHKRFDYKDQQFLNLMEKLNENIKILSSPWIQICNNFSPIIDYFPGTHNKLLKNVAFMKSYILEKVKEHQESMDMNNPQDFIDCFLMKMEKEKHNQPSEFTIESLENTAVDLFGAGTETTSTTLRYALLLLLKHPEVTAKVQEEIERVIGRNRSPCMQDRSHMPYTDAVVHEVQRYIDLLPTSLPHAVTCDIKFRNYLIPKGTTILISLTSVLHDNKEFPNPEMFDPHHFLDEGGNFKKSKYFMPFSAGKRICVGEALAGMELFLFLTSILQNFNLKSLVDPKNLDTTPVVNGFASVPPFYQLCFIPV

With `Nc1c(S(=O)(=O)c2ccccc2)c2nc3ccccc3nc2n1CCN1CCOCC1`, the EC50 was > 160 µM (inactive) in [1], 0.874 µM (active) in experiment [2], > 180 µM (inactive) in experiment [3] and > 160 µM (inactive) in experiment [4].

On to `COc1cc(-c2nc3ccccc3s2)ccc1O`, for which the EC50 in [5] was 11.7 µM (inactive); in experiment [6], > 79.4 µM (not active); in [7] it was 13 µM (not active). The AC50 in experiment [8] was 7.81 µM (active). Besides, in experiment [9], the IC50 is 16.1 µM (active).

Regarding `CNC(=O)Nc1cc(C(F)(F)F)cc(C(F)(F)F)c1`, the EC50 was > 150 µM (inactive) in [1], 1.34 µM (active) in experiment [2], > 180 µM (inactive) in experiment [3] and > 150 µM (inactive) in experiment [4].

For `CCCOC(=O)c1c(-c2ccccc2)nc(CC)c(C(=O)SCC)c1CCC`, the CC50 in experiment [10] was 35.6 µM (active). Also, the values for the AC50 in [11], in [12] and in experiment [13] were 39.8 µM (inconclusive), 7.94 µM (inconclusive) and 15.8 µM (inconclusive), respectively.

As to `c1ccc(NNc2ccccc2)cc1` [HYDRAZOBENZENE], the AC50 in experiment [13] was 35.5 µM (inconclusive).

In the case of `Cc1cc(C(C)(C)C)c(O)c(C(C)(C)C)c1` [BUTYLATED HYDROXYTOLUENE], in experiment [13], the AC50 is 11.2 µM (inconclusive).

`O=C(CNC(=O)c1ccco1)NCC(=O)OCC(=O)c1ccc(Cl)c([N+](=O)[O-])c1`: in [14], the EC50 was > 40 µM (inactive). The concentration for half-maximal inhibition (IC50) in [15] was 7.54 µM (active).

As to `COc1ccc(/N=C2/C(=O)N3c4c(cccc42)C(C)=CC3(C)C)cc1`, the EC50 in [14] is > 40 µM (inactive). The figures for the IC50 in experiment [16] and in [15] were > 100 µM (active) and > 40 µM (not active), respectively.

With `O=C(C1=C[C@H](c2ccc(C(F)(F)F)cc2)C[C@H](OCc2ccc(CO)cc2)O1)N1CCN(Cc2ccc3c(c2)OCO3)CC1`, the EC50 in experiment [17] was 0.265 µM (active); in experiment [18] it was > 60 µM (not active). The AC50 in experiment [19] was 4.74 µM (active); in [20], 25.8 µM (active).

Regarding `COc1cccc(/C=N/NC(=O)C(=O)Nc2ccccc2OC(F)(F)C(F)F)c1O`, the EC50 in [1] is > 160 µM (inactive); in experiment [21], 92.8 µM (active); in [2] it was 0.46 µM (active); in experiment [22] it was > 350 µM (not active); in [3] it was > 180 µM (inactive); in [4] it was 10.6 µM (active). In addition, the half-maximal activity concentration (AC50) in [23] was 4.2 µM (active); in experiment [24] it was 2.77 µM (active).

Consider `O=C(c1cccc(Br)c1)c1coc2ccc(O)cc12`, for which the half-maximal activity concentration (AC50) in [19] was 0.913 µM (active); in experiment [20] it was 23.1 µM (active).

For the compound `CC(=O)c1cccc(NS(=O)(=O)c2cc(-c3cnc(C4CC4)o3)ccc2C)c1`, the figures for the half-maximal activity concentration (AC50) in experiment [19] and in [20] were 1.03 µM (active) and 25 µM (active), respectively.

As to `CN(C)C(=O)N1CCN(S(=O)(=O)c2ccc3ccccc3c2)CC1`, the IC50 in [25] was 12.9 µM (active).
